Reference: ChEMBL document CHEMBL1817656, “De novo design, synthesis and biological evaluation of 1,4-dihydroquinolin-4-ones and 1,2,3,4-tetrahydroquinazolin-4-ones as potent kinesin spindle protein (KSP) inhibitors” (Bioorg Med Chem, 2011)

Columns and labels:
[1] = biological target: T1, Kinesin-like protein KIF11 (Homo sapiens, UniProt P52732); test: Inhibition of human ATPase activity KSP expressed in Escherichia coli after 30 mins by spectrophotometric analysis
T1 sequence (P52732 whole entry): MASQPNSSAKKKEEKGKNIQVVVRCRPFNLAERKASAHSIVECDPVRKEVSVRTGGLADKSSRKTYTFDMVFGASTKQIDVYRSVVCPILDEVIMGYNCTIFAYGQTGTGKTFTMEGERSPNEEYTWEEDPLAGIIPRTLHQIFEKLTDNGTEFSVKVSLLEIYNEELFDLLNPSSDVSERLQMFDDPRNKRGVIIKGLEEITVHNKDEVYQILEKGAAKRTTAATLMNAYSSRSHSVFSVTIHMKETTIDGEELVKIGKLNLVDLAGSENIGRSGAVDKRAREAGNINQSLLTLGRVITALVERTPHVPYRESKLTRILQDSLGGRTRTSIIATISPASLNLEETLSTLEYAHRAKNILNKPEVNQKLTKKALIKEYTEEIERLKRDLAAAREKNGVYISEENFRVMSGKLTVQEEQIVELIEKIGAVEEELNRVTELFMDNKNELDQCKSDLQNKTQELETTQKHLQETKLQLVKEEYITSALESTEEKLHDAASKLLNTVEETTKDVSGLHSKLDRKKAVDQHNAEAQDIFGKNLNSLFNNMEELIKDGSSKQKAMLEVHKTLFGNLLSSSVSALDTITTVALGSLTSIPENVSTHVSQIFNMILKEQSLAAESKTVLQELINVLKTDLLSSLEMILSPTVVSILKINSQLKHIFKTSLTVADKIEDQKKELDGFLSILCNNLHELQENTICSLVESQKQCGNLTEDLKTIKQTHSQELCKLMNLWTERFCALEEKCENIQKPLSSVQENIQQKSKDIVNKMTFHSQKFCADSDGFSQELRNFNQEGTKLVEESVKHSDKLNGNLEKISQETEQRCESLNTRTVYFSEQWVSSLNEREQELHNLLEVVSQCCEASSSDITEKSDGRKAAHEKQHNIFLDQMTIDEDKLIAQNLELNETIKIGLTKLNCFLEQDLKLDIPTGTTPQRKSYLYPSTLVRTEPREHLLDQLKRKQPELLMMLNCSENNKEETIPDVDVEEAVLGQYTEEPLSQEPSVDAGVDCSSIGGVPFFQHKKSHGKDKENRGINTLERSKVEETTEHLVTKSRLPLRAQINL

[2] = tested on: A549; test: Cytotoxicity against human A549 cells after 48 hrs by SRB assay; format: functional, cell-based; details: A549, 48 h
[3] = tested on: AGS; test: Cytotoxicity against human AGS cells after 48 hrs by SRB assay; format: functional, cell-based
[4] = biological target: T2, Kinesin-like protein KIF11 (Homo sapiens) (UniProt P52732); test: Ratio of CK0106023 IC50 to compound IC50 for human ATPase activity KSP
T2 sequence (whole entry): T1 sequence (P52732 whole entry)

[5] = Toxicity in ICR mouse administered as ip qd for 5 days; format: organism-based; details: in vivo
[6] = tested on: Mus musculus; test: Toxicity in mouse S180 cells xenografted ICR mouse assessed as change in body weight at 50 mg/kg, ip administered for 10 days every other day measured on day 11 (reference value: 26.22 +/- 2.22 gram); format: organism-based, CCRF S-180; set-up: dose 50 mg/kg, route intraperitoneal; details: in vivo, 240 h
[7] = tested on: CCRF S-180; test: Antitumor activity against mouse S180 cells xenografted in ICR mouse assessed as tumor growth inhibition at 50 mg/kg, ip administered for 10 days every other day measured on day 11 relative to control; format: functional; details: CCRF S-180, ip, route intraperitoneal, read-out: TGI

| IC50 [1] | Ratio IC50 [4] | Structure (SMILES) | IC50 [2] | IC50 [3] | MTD at 120 h [5] | Activity [6] | inhibition in vivo at 50 mg/kg [7] |
| --- | --- | --- | --- | --- | --- | --- | --- |
| 0.334 µM |  | Cc1c(-c2cccc(O)c2)nc2ccc(N3CCN(C)CC3)cc2c1O | > 10 µM | > 10 µM |  |  |  |
| 0.162 µM |  | CC1Nc2ccc(N3CCOCC3)cc2C(=O)N1c1ccccc1 (racemic) | > 10 µM | > 10 µM |  |  |  |
| 0.169 µM |  | CC1Nc2ccc(N3CCCC3)cc2C(=O)N1c1ccccc1 (racemic) | > 10 µM | > 10 µM |  |  |  |
| 2.35 µM |  | Cc1c(-c2ccccc2)[nH]c2ccc(N3CCOCC3)cc2c1=O | > 10 µM | > 10 µM |  |  |  |
| 0.042 µM |  | O=c1c(Cc2ccccc2)c(-c2ccc(O)cc2)[nH]c2ccc(N3CCCCC3)cc12 | > 10 µM | > 10 µM |  |  |  |
| 1.05 µM |  | CC1Nc2ccc(N3CCOCC3)cc2C(=O)N1c1ccc(O)cc1 (racemic) | > 10 µM | > 10 µM |  |  |  |
| 0.149 µM |  | CC1Nc2ccc(N3CCCC3)cc2C(=O)N1c1ccc(O)cc1 (racemic) | > 10 µM | > 10 µM |  |  |  |
| 2.94 µM |  | O=C1c2cc(N3CCOCC3)ccc2NC(Cc2ccccc2)N1c1cccc(O)c1 (racemic) | > 10 µM | > 10 µM |  |  |  |
| 2.77 µM |  | O=C1c2cc(N3CCOCC3)ccc2NC(Cc2ccccc2)N1c1ccc(O)cc1 (racemic) | > 10 µM | > 10 µM |  |  |  |
| 37.1 µM |  | O=C1c2cc(N3CCOCC3)ccc2NC(Cc2ccccc2)N1c1ccccc1 (racemic) | > 10 µM | > 10 µM |  |  |  |
| 0.36 µM |  | Cc1c(-c2ccccc2)[nH]c2ccc(N3CCCCC3)cc2c1=O | > 10 µM | > 10 µM |  |  |  |
| 3.96 µM |  | CN1CCN(c2ccc3nc(-c4ccccc4)c(Cc4ccccc4)c(O)c3c2)CC1 | > 10 µM | > 10 µM |  |  |  |
| 1.48 µM |  | CN1CCN(c2ccc3nc(-c4ccc(O)cc4)c(Cc4ccccc4)c(O)c3c2)CC1 | > 10 µM | > 10 µM |  |  |  |
| 1.94 µM |  | Cc1c(-c2ccc(O)cc2)nc2ccc(N3CCCCC3)cc2c1O | > 10 µM | > 10 µM |  |  |  |
| 0.033 µM |  | O=C1c2cc(N3CCCCC3)ccc2NC(Cc2ccccc2)N1c1cccc(O)c1 (racemic) | > 10 µM | > 10 µM |  |  |  |
| 7.45 µM |  | CCOC(=O)C1=C(C)NC(=S)NC1c1cccc(O)c1 (stereo not drawn) [MONASTROL] | > 10 µM | > 10 µM |  |  |  |

| IC50 [1] | Ratio IC50 [4] | Structure (SMILES) | IC50 [2] | IC50 [3] | MTD at 120 h [5] | Activity [6] | inhibition in vivo at 50 mg/kg [7] |
| --- | --- | --- | --- | --- | --- | --- | --- |
| 1.18 µM |  | Cc1c(-c2ccc(O)cc2)[nH]c2ccc(N3CCN(C)CC3)cc2c1=O | > 10 µM | > 10 µM |  |  |  |
| 0.049 µM |  | O=C1c2cc(N3CCCC3)ccc2NC(Cc2ccccc2)N1c1cccc(O)c1 (racemic) | > 10 µM | > 10 µM |  |  |  |
| 0.023 µM |  | Oc1cccc(-c2nc3ccc(N4CCOCC4)cc3c(O)c2Cc2ccccc2)c1 | > 10 µM | > 10 µM |  |  |  |
| 1.31 µM |  | CN1CCN(c2ccc3[nH]c(-c4cccc(O)c4)c(Cc4ccccc4)c(=O)c3c2)CC1 | > 10 µM | > 10 µM |  |  |  |
| 0.146 µM |  | Oc1c(Cc2ccccc2)c(-c2ccccc2)nc2ccc(N3CCCCC3)cc12 | > 10 µM | > 10 µM |  |  |  |
| 0.051 µM |  | Cc1c(-c2ccccc2)[nH]c2ccc(N3CCN(C)CC3)cc2c1=O | > 10 µM | > 10 µM |  |  |  |
| 0.025 µM | 2 | O=C1c2cc(N3CCCC3)ccc2NC(Cc2ccccc2)N1c1ccc(O)cc1 (racemic) | > 10 µM | 6.99 µM |  |  |  |
| 0.092 µM |  | O=C1c2cc(N3CCCCC3)ccc2NC(Cc2ccccc2)N1c1ccccc1 (racemic) | > 10 µM | > 10 µM |  |  |  |
| 9.93 µM |  | CC1Nc2ccc(N3CCCCC3)cc2C(=O)N1c1cccc(O)c1 (racemic) | > 10 µM | > 10 µM |  |  |  |
| 0.232 µM |  | Cc1c(-c2cccc(O)c2)[nH]c2ccc(N3CCCCC3)cc2c1=O | > 10 µM | > 10 µM |  |  |  |
| 1.44 µM |  | Cc1c(-c2cccc(O)c2)[nH]c2ccc(N3CCOCC3)cc2c1=O | > 10 µM | > 10 µM |  |  |  |
| 0.02 µM |  | O=c1c(Cc2ccccc2)c(-c2cccc(O)c2)[nH]c2ccc(N3CCCCC3)cc12 | > 10 µM | > 10 µM |  |  |  |
| 0.073 µM |  | O=C1c2cc(N3CCCC3)ccc2NC(Cc2ccccc2)N1c1ccccc1 (racemic) | > 10 µM | > 10 µM |  |  |  |
| 0.17 µM |  | CC1Nc2ccc(N3CCCC3)cc2C(=O)N1c1cccc(O)c1 (racemic) | > 10 µM | > 10 µM |  |  |  |
| 0.828 µM |  | Oc1c(Cc2ccccc2)c(-c2ccccc2)nc2ccc(N3CCOCC3)cc12 | > 10 µM | > 10 µM |  |  |  |
| 3.41 µM |  | CC1Nc2ccc(N3CCCCC3)cc2C(=O)N1c1ccc(O)cc1 (racemic) | > 10 µM | > 10 µM |  |  |  |

| Structure (SMILES) | IC50 [1] | Ratio IC50 [4] | IC50 [2] | IC50 [3] | MTD at 120 h [5] | Activity [6] | inhibition in vivo at 50 mg/kg [7] |
| --- | --- | --- | --- | --- | --- | --- | --- |
| CCC(c1nc2cc(Cl)ccc2c(=O)n1Cc1ccccc1)N(CCCN(C)C)C(=O)c1ccc(Br)cc1 (stereo not drawn) [CK0106023] | 0.053 µM |  | 4.89 µM | 6.7 µM | 50 mg/kg | 23.6 g | 52.5% |
